Results: patent US8518965B2, “Compositions and methods for treating cancer” (Trustees of Dartmouth College, priority 2009, dated 2013)
Read-outs that look alike come from different tables or passages of the source.

Legend:
[1] = system: SF 295 human glioblastoma cells; assay: Colony formation assay, SF 295 cells; format: cell-based
Experimental: (§1) NCI/ADR-RES human breast cancer cells (500 cells), HCT116 human colon cancer cells (400 cells) or SF 295 human glioblastoma cells (1000 cells) were plated in 60 mm Petri dishes containing 2.7 ml of medium (modified McCoy's 5a medium containing 10% fetal bovine serum and 100 units/ml penicillin and 100 μg/ml streptomycin). The cells were incubated in a CO2 incubator at 37° C. for 5 hours for attachment to the bottom of Petri dishes. Compounds were prepared fresh in medium at ten times the final concentration, and then 0.3 ml of this stock solution was added to the 2.7 ml of medium in the dish. The cells were then incubated with compounds for 72 hours at 37° C. At the end of incubation, the compound-containing media were decanted, the dishes were rinsed with 4 ml of Hank's Balance Salt Solution (HBSS), 5 ml of fresh medium was added, and the dishes were returned to the incubator for colony formation. The cell colonies were counted using a colony counter after incubation for 14 days for NCI/ADR-RES cells and 10 days for HCT116 cells and SF 295 cells. Cell survival was calculated and the IC50 values (the drug concentration producing 50% inhibition of colony formation) were determined for each tested compound.
One thousand SF 295 cells were plated in 60 mm Petri dishes containing 2.7 ml of medium (modified McCoy's 5a medium containing 10% fetal bovine serum and 100 units/ml penicillin and 100 μg/ml streptomycin). The cells were incubated in a CO2 incubator at 37° C. for 5 hours for attachment to the bottom of Petri dishes. Compounds were prepared fresh in medium at ten times the final concentration, and then 0.3 ml of this stock solution was added to the 2.7 ml of medium in the dish. The cells were then incubated with the compounds for 72 hours at 37° C. At the end of incubation, the compound-containing media were decanted, the dishes were rinsed with 4 ml of Hank's Balance Salt Solution (HBSS), 5 ml of fresh medium was added, and the dishes were returned to the incubator for colony formation. After incubation for 10 days, the cell colonies were counted using a colony counter. Cell survival was calculated and the values of IC50 were determined for each compound tested.

[2] = system: HCT116 human colon cancer cells; assay: Colony formation assay, HCT116 cells; format: cell-based
Experimental: as §1
Four hundred HCT116 cells were plated in 60 mm Petri dishes containing 2.7 ml of medium (modified McCoy's 5a medium containing 10% fetal bovine serum and 100 units/ml penicillin and 100 μg/ml streptomycin). The cells were incubated in a CO2 incubator at 37° C. for 5 hours for attachment to the bottom of Petri dishes. Compounds were prepared fresh in medium at ten times the final concentration, and then 0.3 ml of this stock solution was added to the 2.7 ml of medium in the dish. The cells were then incubated with drugs for 72 hours at 37° C. At the end of incubation the compound-containing media were decanted, the dishes were rinsed with 4 ml of Hank's Balance Salt Solution (HBSS), 5 ml of fresh medium was added, and the dishes were returned to the incubator for colony formation. HCT116 cell colonies were counted using a colony counter after […] of incubation. Cell survival was calculated and IC50 values were determined for each compound tested.

[3] = system: SF 295 human glioblastoma xenografts; assay: In vivo efficacy, SF 295 xenografts in nude mice; conditions: D11B 382 mg/kg single i.p. injection
Experimental: In vivo anticancer efficacy studies were performed on nude mice (nu/nu genotype) bearing SF 295 human glioblastoma xenografts. […]. Treatment was initiated at that time, with the first day of treatment designated as day 0 for all calculations and plots. […] Compound doses were 382 mg/kg for D11B, 212 mg/kg for D15B, 5 mg/kg for D25B, and 10.6 mg/kg for D35B. Mice in the control group bearing 3 mm diameter tumors was treated with vehicle alone. After treatment, tumor sizes were measured by caliper every day. Daily measurements of the tumor diameters (d1, d2) in two orthogonal directions was used to calculate the tumor volume (tumor volume=π/6{(d1+d2)/2}^3) using the approximation that the tumors were spherical. The values of time (days) required to grow the tumor to twice their initial size after various treatments was calculated as tumor doubling time (TDT) for evaluating the treatment effects. Survival times and curative effects after treatment were also observed and recorded.

[4] = Solubility in solvents and buffers; format: physicochemical; conditions: for solubility: read-out: Solubility (mg/ml), 25° C.
Experimental: Characterization of D11B. The solubility of D11B in different solvents was analyzed (Table 1).
The solubility of D11B in various combinations of solvents was also analyzed. […] For the analysis of co-solvents, stock solutions were prepared by dissolving D11B in a corresponding solvent. Stock solutions of D11B in dimethylsulfoxide (DMSO) were prepared at 25° C., and stock solutions of D11B in PEG-400, CREMOPHOR® EL and Polysorbate 80 were prepared at 100° C. Injection solutions, in water (0.3 mg/ml), were prepared by dropwise addition of the stock solution to a required volume of vigorously stirred hot water (80° C.).
The solubility of D11B×2AH in DMSO, PEG-400, EtOH, and buffer was determined (Table 7).

[5] = in vivo; conditions: C3H/HeN, mouse, ip
Experimental: The MTD40 (maximum tolerated dose at day 40) values were determined on normal C3H/HeN mice using standard procedures. […] The result of this exercise was two dosages, one apparently nonlethal and the other lethal, if severe and irreversible toxicity occurred and euthanasia was required. Six mice were dosed at each dosage. If no severe and irreversible toxicity occurred at the lower dosage and at least one with severe and irreversible toxicity at the higher dose, then the lower dose was considered to be the MTD.
Compounds were administered to C3H/HeN mice by intraperitoneal injection (5% alcohol, 5% CREMOPHOR® EL, and 90% saline, 0.5 ml/20 gram, single injection). Drug toxicity was evaluated on mice checked daily for 40 days. The toxicity parameters reported were the MTD40. […] At the end of experiment, all mice were euthanized.
The toxicity parameters reported were the MTD40. At the end of experiment, all mice will be euthanized.

With `c1ccc2c(Nc3ccc(Oc4ccc(Nc5c6ccccc6nc6ccccc56)cc4)cc3)c3ccccc3nc2c1` [Compound D11B] the IC50 ([1]; Homo sapiens, SF 295 cells, 72 hours with compound, colonies counted after 10 days, read-out: IC50 (nM) Glioblastoma) was 177 nM, the “IC50 values lower for glioblastoma cells as compared to breast cancer cells” value ([1]; glioblastoma vs breast cancer cells) was “approximately 10 fold” and the IC50 ([2]; Homo sapiens, HCT-116, HCT116 cells, 72 hours with compound, colonies counted after 10 days, read-out: IC50 (nM) Colon Cancer) was 167 nM. The “IC50 values lower for colon cells as compared to breast cancer cells” value ([2]; colon vs breast cancer cells) was “approximately 10 fold”, the Curative effect [3] was “one mouse was even cured” and the “Ratio of TDTs (D11B treated over control)” value [3] was 9.8. For the same compound, the “TDT (tumor doubling time)” value ([3]; control group 2.5 days) was 24.5 days, the Mean survival time ([3]; control group 40.5 days) was at least 58.67 days and the “Solubility in 5% dextrose in water” value ([4]; 5% dextrose in water) was “negligible”. For the same compound, the solubility ([4]; AcOH, 25 °C, organic solvent or mixture, AcOH) was about 0.01 mg/mL, the solubility ([4]; AcOH-H2O (1-1), 25 °C, aqueous with cosolvent or surfactant or cyclodextrin, AcOH—H2O (1-1)) was over 1.1 mg/mL and the solubility ([4]; AcOH-H2O (9-1), 25 °C, organic solvent or mixture, AcOH—H2O (9-1)) was over 13 mg/mL. For the same compound, the solubility ([4]; CHCl3, 25 °C, organic solvent or mixture, CHCl3) was 0.12 mg/mL, the solubility ([4]; DMF, 25 °C, organic solvent or mixture, DMF) was about 20 mg/mL and the solubility ([4]; DMSO, 25 °C, organic solvent or mixture, DMSO) was about 100 mg/mL. For the same compound, the “Solubility (mg/ml), 25° C.” value ([4]; H2O) was “negligible”, the solubility ([4]; MeOH, 25 °C, organic solvent or mixture, MeOH) was about 1 mg/mL and the solubility ([4]; Na2HPO4-citric acid buffer, 25 °C, pH 4, aqueous buffer, Na2HPO4-citric acid buffer (pH = 4), first entry) was under 0.1 mg/mL. The solubility ([4]; Na2HPO4-citric acid buffer, 25 °C, pH 4, aqueous buffer, Na2HPO4-citric acid buffer (pH = 4), second entry) was under 0.1 mg/mL, the solubility ([4]; PEG-400, 25 °C, organic solvent or mixture, PEG-400, heating to 100° C. was required) was about 12 mg/mL and the Solubility in saline ([4]; saline (0.9% NaCl in water)) was “negligible”. It also gave an MTD at 40 days [5] of 450 mg/kg.
